melting point [°C]	SMILES
49 to 51	Cc1ccc(-n2cc(C)cn2)c(N)c1
257 to 259	CCOC(=O)c1c[nH]c2cc(OC)cc(OC)c2c1=O
154 to 156	O=C(O)c1csc(Cc2ccccc2F)n1
100 to 102	N#Cc1ccc(I)c(C(F)(F)F)c1
133 to 135	O=Cc1c(Cl)nc(Cl)n1-c1ccccc1
137 to 139	CC(O)c1ccc2c(c1)NC(=O)CO2 (stereo not given)
119 to 121	CCC(=O)NCc1cc(S(N)(=O)=O)ccc1OC
174 to 176	COc1cc(N)c([N+](=O)[O-])cc1OC
45 to 47	O=S(=O)(Cl)c1cnccc1Cl
134 to 136	CCOc1ccc(S(=O)(=O)N2CCCCC2)cc1N
137 to 139	Cc1cccc(NC(=O)CCCCl)c1
203 to 205	O=C(O)c1ccc(F)c(S(=O)(=O)N2CCCCC2)c1
181 to 183	COC(=O)c1cn(C)c(-c2ccc(N)cc2)c1C(=O)OC
58 to 60	Cc1cc(N)nn1-c1cccc(Cl)c1
59 to 61	CCN(CC)C(=O)c1ccc(S(=O)(=O)Cl)cc1
75 to 77	Nc1cc([N+](=O)[O-])ccc1OC(F)F
205 to 208	COc1ccc(N2C(=O)CCC(C(=O)O)C2c2ccccc2OC)cc1 (stereo not given)
234 to 236	O=C(O)CCNC(=O)c1ccc2cn[nH]c2c1
169 to 171	Cc1c(C(=O)O)cccc1S(=O)(=O)Cl
105 to 107	CC(C)Oc1nnc(S)s1
179 to 181	Cc1nc(-c2ccc(Br)cc2Cl)n[nH]1
272 to 274	O=C(O)c1ccc(S(=O)(=O)N2CCc3ccccc3C2)cc1
144 to 146	CNC(=O)c1ccc(Cl)c(N)c1
120 to 122	Cc1ccc(NC(=O)C(Cl)c2ccccc2)cc1Cl (stereo not given)
73 to 75	Cc1ccc(C(=O)Cc2ccccn2)cc1
161 to 163	NC(=O)c1ccn(-c2ccccc2N)n1
115 to 117	COc1cc(C(C[N+](=O)[O-])c2c[nH]c3ccccc23)ccc1O (stereo not given)

melting point [°C]	SMILES
105 to 107	CN(C)C(=O)c1cc(S(=O)(=O)Cl)cn1C
56 to 60	O=C(O)CCNc1ccccc1
209 to 211	O=C(O)c1cn(-c2ccccc2)nc1-c1ccc(Cl)s1
276 to 278	CCC(C)(N)C(=O)O (stereo not given)
181 to 183	CSc1nc(C2CC2)cc(C(=O)O)c1C#N
145 to 147	O=C1c2ccccc2S(=O)(=O)N1CCl
73 to 75	CCNS(=O)(=O)c1ccc(Cl)nc1
199 to 201	Nc1cc(S(=O)(=O)N2CCOCC2)ccc1O
132 to 134	NC(=NO)c1cccc(Br)c1
270 to 272	Nc1nnc2n1CCCC2
106 to 108	COc1c(C#N)cnc2ccccc12
132 to 134	O=C(CCl)Nc1c(F)cc(F)cc1Br
196 to 198	O=C(O)c1cccc(CN2CCCC2)c1
58 to 66	Nc1nc2c(s1)CCc1ccccc1-2
83 to 85	OC1CCCCC1c1ccc(Cl)cc1 (stereo not given)
64 to 66	COC(=O)C1CCc2cn[nH]c2C1 (stereo not given)
152 to 156	CC(=O)NC(C)c1ccc(C(=O)CCl)cc1 (stereo not given)
56 to 58	CC(=O)N(c1nc(CCl)cs1)C1CC1
102 to 104	CC(CC(N)=NO)N(C)C(=O)OC(C)(C)C (stereo not given)
172 to 174	O=[N+]([O-])c1ccc2[nH]c3c(c2c1)CCCC3
139 to 141	O=C(O)Cc1ccc(S(=O)(=O)C(F)F)cc1
149 to 151	CC(C)(C)OC(=O)N1CCC(C)(C(=O)O)CC1
137 to 139	NCc1ccc(NC(=O)c2cccnc2)cc1
204 to 206	O=c1ccnc(-c2ccccc2)[nH]1
123 to 125	O=C(O)COc1ccc(S(=O)(=O)Cl)cc1Cl
95 to 97	Cc1ccc(-n2cc(SC(=O)N(C)C)cn2)cc1

SMILES	melting point [°C]
O=c1cc(CCl)nc2scnn12	183 to 187
NCC(O)c1cccc(OCc2ccccc2)c1 (stereo not given)	107 to 109
